Patent publication US20240139277A1, “DRUG CONTAINING ACTIVE SULFUR COMPOUND AS ITS MAIN COMPONENT” (priority 2020, published 2024)
“Also recorded” adds a separate entry of the source.

What was measured:
[1] = molecular target: T1, papain-like protease (PLpro) (Severe acute respiratory syndrome coronavirus 2, UniProt P0DTC1); settings: reported in literature; cited from earlier work
[2] = molecular target: T2, main protease (3CLpro) (Severe acute respiratory syndrome coronavirus 2, UniProt P0DTC1); settings: reported in literature; cited from earlier work
[3] = tested on: novel coronavirus (SARS-CoV-2); settings: reported in NPL 2 and NPL 3; cited from earlier work
[4] = molecular target: T1, papain-like protease (PLpro); experiment: SARS-CoV-2 protease inhibition test, papain-like protease; type: biochemical; settings: 0.3 mM, 37 degrees Celsius, 15 minutes, MCA fluorogenic substrate, compared to control (GSSSG(−)); FIG. 5
[5] = molecular target: T2, main protease (3CLpro); experiment: SARS-CoV-2 protease inhibition test, main protease; type: biochemical; settings: 0.3 mM, 37 degrees Celsius, 15 minutes, MCA fluorogenic substrate, compared to control (GSSSG(−)); FIG. 5
[6] = tested on: SARS-CoV-2 JPN/TY/WK-521 strain; experiment: anti-SARS-CoV-2 action test in VeroE6/TMPRSS2 cells, quantitative PCR; type: cell-based; settings: GSSSG 10 μM, 100 μM, 300 μM vs no GSSSG; MOI 0.01; FIG. 6
[7] = tested on: influenza virus PR8 strain (A/PR/8/34 (H1N1)); experiment: anti-influenza effect in mice (influenza A virus pneumonia); type: in vivo, B6 mice; settings: nasal administration 50 μL, 1 mM, six hours before virus inoculation; vs PBS group; FIG. 3
Protocol: An influenza virus PR8 strain (A/PR/8/34 (H1N1), Akaike T. et al, Journal of Infectious Diseases, 170, 1023-1026, 1994) (2000 pfu/ml (PBS)) was administered to each of a plurality of B6 mice (ten 8-week-old mice for each group). This administration was performed by intratracheal administration of a virus solution (PBS 40 μL) under anesthesia. Furthermore, nasal administration of GSSSG (50 μL,1 mM) was performed under anesthesia six hours before the virus inoculation and then a survival rate of the mice, their lung damage (14 days after infection), and various kinds of inflammatory cell counts (three days after infection) were measured chronologically and analyzed. A group to which the GSSSG was administered was compared with a control group (PBS-administered group/no GSSG administered) concerning the survival rate, whether there is any lung damage or not, and the various kinds of inflammatory cell counts. Regarding the lung damage, pneumonia images were evaluated by means of HE staining. Regarding the measurement of the inflammatory cell counts, bronchoalveolar lavage (BAL) was performed by using PBS and the number of cells in BAL and cytokine were analyzed.

[8] = tested on: porcine pancreas elastase (PPE) induced emphysema models; experiment: elastase-induced COPD / emphysema model; type: in vivo, CARS2-deficient B6 mice
Protocol: FIG. 4 is an example indicating the therapeutic effect of the GSSSG on elastase-induced COPD; and airway administration of GSSSG (50 μL, 1 mM) to porcine pancreas elastase (PPE) induced emphysema models of CARS2-deficient B6 mice^*1 was performed three times, that is, six hours before, two days later, and four days later, and an inflammatory cell count in a bronchial alveolar lavage fluid (BALF) five days after the PPE administration was measured and emphysema lesions were analyzed by using CT. The inflammatory cell count was measured in the same manner as in the example of FIG. 3. […] 2017.

[9] = tested on: bronchial asthma model; experiment: bronchial asthma model; type: in vivo; settings: mice
[10] = tested on: pulmonary fibrosis model; experiment: pulmonary fibrosis model; type: in vivo; settings: mice

SMILES | inhibitory activity on PLpro as reported in NPL [1] | inhibitory activity on 3CLpro as reported in NPL [2] | proliferation suppression effect on SARS-CoV-2 [3] | inhibitory activity on protease activity (PLpro) [4] | inhibitory activity on protease activity (3CLpro) [5] | RNA viral load [6] | effect on influenza A virus pneumonia [7] | inflammatory cell count in bronchial alveolar lavage fluid (BALF) ([8]; airway administration 50 μL, 1 mM, three times, five days after PPE administration, vs GSSSG(−), FIG. 4) | emphysema lesions by CT ([8]; airway administration 50 μL, 1 mM, three times, vs GSSSG(−), FIG. 4) | therapeutic effect in COPD model ([8]; mice) | therapeutic effect in bronchial asthma model [9] | therapeutic effect in pulmonary fibrosis model [10]
O=c1c2ccccc2[se]n1-c1ccccc1 [Ebselen, 2-Phenyl-1,2-benzoisoselenazol-3(2H)-one] | strong inhibitory activity | strong inhibitory activity | conspicuous proliferation suppression effect | – | – | – | – | – | – | – | – | –
N[C@@H](CCC(=O)N[C@@H](CSSSC[C@H](NC(=O)CC[C@H](N)C(=O)O)C(=O)NCC(=O)O)C(=O)NCC(=O)O)C(=O)O [GSSSG, glutathione trisulfide] | – | – | – | same level of strong inhibitory activity | same level of strong inhibitory activity | RNA viral load decreases along with an increase in the dosage | preventive and therapeutic effects; also recorded: improving severe pneumonia | small as compared to that of the no GSSSG-administered group | remission of the emphysema has been achieved | therapeutic effect of the GSSSG was also confirmed; also recorded: alleviates respiratory tract and lung damage and pulmonary fibrosis | therapeutic effect of the GSSSG was also confirmed; also recorded: alleviates respiratory tract and lung damage and pulmonary fibrosis | therapeutic effect of the GSSSG was also confirmed; also recorded: alleviates respiratory tract and lung damage and pulmonary fibrosis
